The source of these data is US11713338B2, “Cyclic peptides multimers targeting α-4-β-7 integrin” (priority 2016, dated 2023).

What all share (type): cell-based
The target in test [1] is T1, integrin α4β7 on α4β7+ memory T helper cells (Homo sapiens, UniProt P13612+P26010).
T1 construct: endogenous in cells
T1 sequence (P13612 34-1032): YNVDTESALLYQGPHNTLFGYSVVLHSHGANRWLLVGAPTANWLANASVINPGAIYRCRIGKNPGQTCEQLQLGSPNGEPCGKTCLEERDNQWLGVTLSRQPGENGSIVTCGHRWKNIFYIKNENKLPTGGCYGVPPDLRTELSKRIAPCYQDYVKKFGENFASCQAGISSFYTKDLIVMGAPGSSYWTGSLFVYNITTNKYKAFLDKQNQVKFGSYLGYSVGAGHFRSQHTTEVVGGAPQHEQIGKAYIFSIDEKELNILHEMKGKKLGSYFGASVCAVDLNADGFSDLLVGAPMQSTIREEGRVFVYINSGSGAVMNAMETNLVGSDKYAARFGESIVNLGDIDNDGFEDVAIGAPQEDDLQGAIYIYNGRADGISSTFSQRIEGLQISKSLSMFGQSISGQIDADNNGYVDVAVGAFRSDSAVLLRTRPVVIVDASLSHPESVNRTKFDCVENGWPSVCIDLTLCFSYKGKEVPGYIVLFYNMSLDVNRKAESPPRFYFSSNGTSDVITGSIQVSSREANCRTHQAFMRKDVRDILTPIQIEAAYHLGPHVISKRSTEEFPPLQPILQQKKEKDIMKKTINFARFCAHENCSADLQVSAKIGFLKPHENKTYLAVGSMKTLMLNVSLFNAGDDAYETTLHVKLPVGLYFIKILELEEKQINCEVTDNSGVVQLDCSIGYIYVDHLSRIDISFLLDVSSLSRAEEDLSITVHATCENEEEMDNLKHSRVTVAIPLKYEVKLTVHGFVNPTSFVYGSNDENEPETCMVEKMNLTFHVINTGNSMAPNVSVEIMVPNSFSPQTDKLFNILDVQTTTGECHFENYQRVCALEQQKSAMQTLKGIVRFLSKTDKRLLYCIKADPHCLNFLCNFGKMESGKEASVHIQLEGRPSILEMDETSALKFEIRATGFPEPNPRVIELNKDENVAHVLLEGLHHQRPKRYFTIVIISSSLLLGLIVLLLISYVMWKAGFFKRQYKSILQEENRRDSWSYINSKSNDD
T1 sequence (P26010 20-798): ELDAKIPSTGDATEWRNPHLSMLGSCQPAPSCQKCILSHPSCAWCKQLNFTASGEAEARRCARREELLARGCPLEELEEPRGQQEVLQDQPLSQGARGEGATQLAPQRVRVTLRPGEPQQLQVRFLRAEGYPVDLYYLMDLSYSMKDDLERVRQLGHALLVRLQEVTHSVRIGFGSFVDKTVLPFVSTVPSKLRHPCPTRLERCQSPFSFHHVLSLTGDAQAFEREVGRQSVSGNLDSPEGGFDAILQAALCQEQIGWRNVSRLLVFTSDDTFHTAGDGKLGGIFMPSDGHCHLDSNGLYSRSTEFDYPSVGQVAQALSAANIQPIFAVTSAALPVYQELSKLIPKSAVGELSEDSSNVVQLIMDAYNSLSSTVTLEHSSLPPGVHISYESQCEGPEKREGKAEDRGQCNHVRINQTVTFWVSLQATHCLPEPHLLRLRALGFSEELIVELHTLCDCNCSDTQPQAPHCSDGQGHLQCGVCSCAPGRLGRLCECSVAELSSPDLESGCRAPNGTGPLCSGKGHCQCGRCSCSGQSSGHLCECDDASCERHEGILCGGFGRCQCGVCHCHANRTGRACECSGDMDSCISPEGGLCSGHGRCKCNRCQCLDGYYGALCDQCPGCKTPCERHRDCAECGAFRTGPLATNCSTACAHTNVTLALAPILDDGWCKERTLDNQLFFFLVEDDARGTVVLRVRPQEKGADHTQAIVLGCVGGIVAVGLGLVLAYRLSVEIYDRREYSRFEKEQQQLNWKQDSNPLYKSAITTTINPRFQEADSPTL
Kind of test: MAdCAM-1 competition / receptor occupancy assay in human whole blood, α4β7-positive Th memory cells. Particulars: human whole blood; for IC50: inhibition of MAdCAM-1 binding to α4β7-positive Th memory cells, FACS, read-out: MADCAM FACS α4β7 Th mem. Here is the method: Analyte Competition Assay in CD4+ Integrin α4+β7-Lo Memory T Cells
Receptor occupancy in primary cells was determined by measuring the amount of biotinylated human recombinant MAdCAM-1-FC or human recombinant VCAM-1-Fc bound to selected cell populations using flow cytometry. Human recombinant MAdCAM-1-FC or human recombinant VCAM-1-FC (R&D systems) were biotinylated using commercially available reagents and protocol (Pierce).
Whole blood was collected from human donors in sodium heparin tubes. […] Cells were washed twice with 1 mL of 1X DPBS calcium magnesium free (CMF) (ThermoFisher Scientific) and resuspended in 100 microL of DPBS CMF.
Biotinylated human recombinant MAdCAM-1-Fc or VCAM-1-Fc were added at saturating concentration and incubated at room temperature for 1 hour. […] Cells were washed with 1 mL stain buffer-FBS (BD Biosciences) and resuspended in 100 μl stain Buffer-FBS (BD Biosciences) containing 4 mM MnCl2. […] Cells were then washed with 1 mL stain buffer-FBS and resuspended in […] stain buffer-FBS. The cells were incubated in the dark for 30 minutes at room temperature with 1 ul Streptavidin APC (Biolegend 0.2 mg/ml) and a panel of antibodies for the detection of memory T helper a4b7-positive cells subset. And amount of 5.0 ul each of the following antibodies were used; CD45 FITC (BioLegend 200 ug/ml), CD29 APC Cy7 (BioLegend 100 ug/ml), Integrin beta7 PE, (BioLegend concentration 50 μg/mL), CD49d V421 (BioLegend 50 μg/mL), CD3 V510 (BioLegend 30 μg/mL), CD4 PECy7 (BioLegend 100 μg/mL), CD45RO PerCP, BioLegend 200 μg/mL). The cells were then washed with stain-buffer-FBS and resuspended in 150 microL stain buffer-FBS for acquisition on the flow cytometer (BD FACSCanto™ flow cytometer and BDFACSDiva™ software). FACS data was acquire by electronic gating on the basis of forward versus side scatter, The cytometer was set to collect 20,000 events in each tube. Cell population were determined using the following markers, CD45+, CD3+, CD4+, CD45RO+, CD49d+, integrin b7, biotinylated ligands.
Compound receptor occupancy was defined as the decrease in the number of integrin β7+ or integrin β7-lo cells binding biotinylated rhMAdCAM-1 or rhVCAM-1, respectively.
Receptor occupancy was calculated with the following equation: 100−((% ligand-positive cells with compound/% ligand-positive cells DMSO)*100) In Vivo T Lymphocyte Trafficking Analysis in Mouse Model of Colitis

Test [2] addresses T2, integrin α4β7 (RPMI8866 human cells adhering to MAdCAM-1) (Homo sapiens, UniProt P13612+P26010).
T2 construct: RMP18866 cells, which express integrin α4β7; host or cells: RPMI8866
T2 sequence (P13612 34-1032): T1 sequence (P13612 34-1032)
T2 sequence (P26010 20-798): T1 sequence (P26010 20-798)
Kind of test: Integrin α4β7-MAdCAM cell adhesion assay (RPMI8866 cells). Conditions: RPMI8866 cells adhering to MAdCAM; read-out: RPMI8866 Adhesion α4β7/MAdCAM IC50. Here is the method:
Integrin α4β7-MAdCAM Cell Adhesion Assay
(§1) RPMI8866 cells were resuspended at 10 million cells/ml in PBS containing […] and incubated at 37° C. for 30 min in a 50 ml tube. […] The plate was emptied by inverting and blotting on paper towels and washed manually twice with PBS. 100 μl PBS was then added to each well. […] To calculate the dose response, the fluorescence value of control wells not containing cells was subtracted from each test well.

For test [3], the target named is T3, integrin α4β1 (RAMOS human cells adhering to VCAM-1) (Homo sapiens, UniProt P05556+P13612).
T3 construct: Ramos cells, which express integrin α4β1; host or cells: RAMOS
T3 sequence (P05556 21-798, one chain of several): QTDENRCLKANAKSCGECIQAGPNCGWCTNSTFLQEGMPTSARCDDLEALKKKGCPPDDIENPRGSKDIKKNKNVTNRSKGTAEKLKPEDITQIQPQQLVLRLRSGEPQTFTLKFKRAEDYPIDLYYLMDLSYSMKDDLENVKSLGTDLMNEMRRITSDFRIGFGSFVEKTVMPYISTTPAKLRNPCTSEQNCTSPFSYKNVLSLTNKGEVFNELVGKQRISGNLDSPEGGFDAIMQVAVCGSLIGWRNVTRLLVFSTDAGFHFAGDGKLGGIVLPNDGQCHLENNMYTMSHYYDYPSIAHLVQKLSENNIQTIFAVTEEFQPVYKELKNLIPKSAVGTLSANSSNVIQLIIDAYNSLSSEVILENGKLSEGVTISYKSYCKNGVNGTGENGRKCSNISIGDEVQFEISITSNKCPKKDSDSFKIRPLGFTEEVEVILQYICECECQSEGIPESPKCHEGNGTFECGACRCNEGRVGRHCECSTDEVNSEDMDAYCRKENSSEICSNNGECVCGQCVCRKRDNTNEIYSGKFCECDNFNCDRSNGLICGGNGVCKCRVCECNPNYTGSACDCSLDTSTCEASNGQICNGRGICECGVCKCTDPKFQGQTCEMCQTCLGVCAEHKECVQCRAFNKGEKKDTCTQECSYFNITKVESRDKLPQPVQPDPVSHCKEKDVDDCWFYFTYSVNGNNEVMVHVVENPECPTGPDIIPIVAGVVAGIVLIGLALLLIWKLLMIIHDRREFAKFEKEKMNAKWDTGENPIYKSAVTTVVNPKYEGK
Kind of test: Integrin α4β1-VCAM cell adhesion assay (RAMOS cells). Conditions: for IC50: Ramos cells adhering to VCAM, read-out: Ramos Adhesion α4β1/VCAM IC50. The procedure: Integrin α4β1-VCAM Cell Adhesion Assay
as §1, with “The plate was incubated overnight at 4° C. and washed twice with 150 μl per well wash buffer (0.05% Tween 20 in PBS), blocked with 250 μl per well blocking buffer (1% non-fat dry milk in PBS), for 1 hour at room temperature. During blocking step, RAMOS” for “RPMI8866”, “PBS.” for “PBS. 100 μl PBS was then added to each well.”

In the case of `CC(C)C[C@@H]1NC(=O)c2ccc(-c3ccc(N4CCNCC4)cc3)c(c2)CNC(=O)[C@@H]2CCCN2[C@H](C(=O)NC(C)(C)C)[C@H](C)NC(=O)[C@H]([C@@H](C)O)NC(=O)[C@H](CC(=O)O)NC1=O` [Compound 340], the “receptor occupancy at low concentrations” value in test [1] (low concentrations) was 50%.

As for `CC(C)C[C@@H]1NC(=O)c2ccc(-c3ccc(N4CCN(C(=O)Cc5cccc(CC(=O)N6CCN(c7ccc(-c8ccc9cc8CNC(=O)[C@@H]8CCCN8[C@H](C(=O)NC(C)(C)C)[C@H](C)NC(=O)[C@H]([C@@H](C)O)NC(=O)[C@H](CC(=O)O)NC(=O)[C@H](CC(C)C)NC9=O)cc7)CC6)c5)CC4)cc3)c(c2)CNC(=O)[C@@H]2CCCN2[C@H](C(=O)NC(C)(C)C)[C@H](C)NC(=O)[C@H]([C@@H](C)O)NC(=O)[C@H](CC(=O)O)NC1=O` [Compound 462], the figures for the IC50 in test [2] and in test [1] were 42 nM and 68 nM, respectively.

As for `CC(C)C[C@@H]1NC(=O)c2ccc(-c3ccc(N4CCN(C(=O)c5ccnc(-c6cc(C(=O)N7CCN(c8ccc(-c9ccc%10cc9CNC(=O)[C@@H]9CCCN9[C@H](C(=O)NC(C)(C)C)[C@H](C)NC(=O)[C@H]([C@@H](C)O)NC(=O)[C@H](CC(=O)O)NC(=O)[C@H](CC(C)C)NC%10=O)cc8)CC7)ccn6)c5)CC4)cc3)c(c2)CNC(=O)[C@@H]2CCCN2[C@H](C(=O)NC(C)(C)C)[C@H](C)NC(=O)[C@H]([C@@H](C)O)NC(=O)[C@H](CC(=O)O)NC1=O` [Compound 465], the IC50 in test [1] is 132 nM.

For the molecule `CC(C)C[C@@H]1NC(=O)c2ccc(-c3ccc(N4CCN(C(=O)c5ccc6cc(C(=O)N7CCN(c8ccc(-c9ccc%10cc9CNC(=O)[C@@H]9CCCN9[C@H](C(=O)NC(C)(C)C)[C@H](C)NC(=O)[C@H]([C@@H](C)O)NC(=O)[C@H](CC(=O)O)NC(=O)[C@H](CC(C)C)NC%10=O)cc8)CC7)ccc6c5)CC4)cc3)c(c2)CNC(=O)[C@@H]2CCCN2[C@H](C(=O)NC(C)(C)C)[C@H](C)NC(=O)[C@H]([C@@H](C)O)NC(=O)[C@H](CC(=O)O)NC1=O` [Compound 471], the figures for the IC50 in test [2] and in test [1] were 29 nM and 46 nM, respectively.

For the molecule `CC(C)C[C@@H]1NC(=O)c2ccc(-c3ccc(N4CCN(C(=O)c5cc(C(=O)N6CCN(c7ccc(-c8ccc9cc8CNC(=O)[C@@H]8CCCN8[C@H](C(=O)NC(C)(C)C)[C@H](C)NC(=O)[C@H]([C@@H](C)O)NC(=O)[C@H](CC(=O)O)NC(=O)[C@H](CC(C)C)NC9=O)cc7)CC6)cc(C(F)(F)F)c5)CC4)cc3)c(c2)CNC(=O)[C@@H]2CCCN2[C@H](C(=O)NC(C)(C)C)[C@H](C)NC(=O)[C@H]([C@@H](C)O)NC(=O)[C@H](CC(=O)O)NC1=O` [Compound 477], the IC50 was determined as 21 nM in test [2] and 124 nM in test [1].

With `CC(C)C[C@@H]1NC(=O)c2ccc(-c3ccc(N4CCN(C(=O)c5cc6ccccc6c(Cc6c(O)c(C(=O)N7CCN(c8ccc(-c9ccc%10cc9CNC(=O)[C@@H]9CCCN9[C@H](C(=O)NC(C)(C)C)[C@H](C)NC(=O)[C@H]([C@@H](C)O)NC(=O)[C@H](CC(=O)O)NC(=O)[C@H](CC(C)C)NC%10=O)cc8)CC7)cc7ccccc67)c5O)CC4)cc3)c(c2)CNC(=O)[C@@H]2CCCN2[C@H](C(=O)NC(C)(C)C)[C@H](C)NC(=O)[C@H]([C@@H](C)O)NC(=O)[C@H](CC(=O)O)NC1=O` [Compound 502], the results for the IC50 in test [2] and in test [3] were 102 nM and 779 nM, respectively. Moreover, the “Ratio Ramos/RPMI” value in test [3] (ratio of cell adhesion IC50s, Ramos α4β1/VCAM over RPMI8866 α4β7/MAdCAM) came out at 8.

For `CC(C)C[C@@H]1NC(=O)c2ccc(-c3ccc(N4CCN(C(=O)CCOCCOCCNC(=O)COCC(=O)NCCOCCOCCC(=O)N5CCN(c6ccc(-c7ccc8cc7CNC(=O)[C@@H]7CCCN7[C@H](C(=O)NC(C)(C)C)[C@H](C)NC(=O)[C@H]([C@@H](C)O)NC(=O)[C@H](CC(=O)O)NC(=O)[C@H](CC(C)C)NC8=O)cc6)CC5)CC4)cc3)c(c2)CNC(=O)[C@@H]2CCCN2[C@H](C(=O)NC(C)(C)C)[C@H](C)NC(=O)[C@H]([C@@H](C)O)NC(=O)[C@H](CC(=O)O)NC1=O` [Compound 506], the IC50 in test [3] came to 11000 nM.

Consider `CC(C)C[C@@H]1NC(=O)C[C@H](CCCCN)N(C)C(=O)[C@H](CCCCNC(=O)CCC(=O)NCCCC[C@@H]2NC(=O)[C@@H]3CCCN3[C@H](C(=O)NC(C)(C)C)[C@H](C)NC(=O)[C@H]([C@@H](C)O)NC(=O)[C@H](CC(=O)O)NC(=O)[C@H](CC(C)C)NC(=O)C[C@H](CCCCN)N(C)C2=O)NC(=O)[C@@H]2CCCN2[C@H](C(=O)NC(C)(C)C)[C@H](C)NC(=O)[C@H]([C@@H](C)O)NC(=O)[C@H](CC(=O)O)NC1=O` [Compound 531], for which the IC50 in test [2] is 23 nM.
